# In patent US20130210907A1, “METHOD FOR PREVENTING OR TREATING ENTEROCHROMAFFIN CELL HYPERPLASIA-RELATED DISEASES BY QUERCETIN ADMINISTRATION” (HONG KONG BAPTIST UNIVERSITY, priority 2012, published 2013):
# Experiments:
# cyclin B1 = test: Western blot of cyclin B1 in QGP-1 cells; type: cell-based, human; conditions: QGP-1, 50-100 μM, 24 h
# Protocol: After drug treatment, the cells are lysed and centrifuged to collect the protein extract After determination of protein content, the samples protein are denatured at 100° C. for 5 min Proteins are separated by 10-12% SDS-PAGE and transferred to PVDF membranes (Bio-Rad, CA). After blocking with 5% nonfat milk for 1 h at room temperature, the membranes are incubated overnight at 4° C. with primary antibodies (mouse anti-cyclin BE 1:500, Abcam; goat anti-p-Cdc2:1:500, Santa Cruz; mouse anti-p21: 1:500, BD Bioscience). After washing three times in TBST, the membranes where incubated with the appropriate secondary antibodies (1:2000, Invitrogen) for 1 h at room temperature. The immunoreaction is detected using ECL Western blotting kit (ECL, Amersham, UK). Bands are visualized on Biomax X-ray film, and optical density of each band is semi-quantified by software (Image J.NIH). In order to adjust for any variations in loading, all detected protein bands are normalized to β-actin levels.
# PI-IBS rats = test: Mechanical stimuli (CRD)-induced 5-HT release: colonic 5-HT content with or without CRD; type: in vivo, rat; conditions: for 5-HT content of tissue, +CRD: after CRD; for 5-HT content of tissue, -CRD: without CRD; for Decrease of colon tissue 5-HT content after CRD application: not significant
# Protocol: (§1) 5-HT content in the colon tissue is assayed based on our previously reported procedure in Qi S D, Tian S L, Xu H X, Sung J J, Bian Z X. Quantification of luminally released serotonin in rat proximal colon by capillary electrophoresis with laser-induced fluorescence detection. Anal Bioanal Chem. 2009 April; 393(8):2059-66. Briefly, the colon segment is homogenized in 15% iced trichloroacetic acid; for 2 min and stored at 4° C. for 2 h. After centrifuge at 10,000 G for 15 min, the supernatant of each sample is filtered using 0.22 μm filters and extracted with diethyl ether for five times to remove the trichloroacetic acid. The prepared samples are added to derivatization solution (150 mM sodium tetraborate, 25% acetonitrile, 2 mM CFSE) and incubated for […] in dark at room temperature. The 5-HT content is analyzed by capillary electrophoresis with laser-induced fluorescence detection and expressed as nanogram per milligram (wet weight of tissue).
# To determine whether mechanical stimuli (CRD) can induce colonic 5-HT release in PI-IBS rats, and whether Quercetin has effect on it, 5-HT content in colonic tissue is evaluated in rats with or without AWR test. The colon tissues for 5-HT content determination are collected from the rats from Example 1 and Example 2, and the methods for 5-HT content determination are followed as described in Example 2.
# QGP-1 cells = test: Sub-G0/G1 fraction by flow cytometry; type: cell-based, human; conditions: QGP-1, 25~100 μM, 24 h
# Protocol: QGP-1 cells are seeded at a density of 10×10^4 cells/ml and pre-incubated overnight. After incubation with or without Quercetin (0-100 μM) for 24 h, cells are harvested by trypsinization and fixed in 70% ethanol at 4° C. overnight. The cells are centrifuged to remove ethanol and washed twice using ice-cold PBS. The cell pallets are resuspended in 500 n1 propidium iodide solution (0.1% Triton X-100, 50 μg/ml propidium iodide in PBS) containing 50 μg/ml RNase and incubated at 37° C. for 30 min and protected from the light. The DNA content of 10,000 cells is detected by BD FASCanto Flow Cytometry and analyzed using CellFit software (Becton Dickinson, Heidelberg, Germany). The data are representative of those obtained in at least three experiments.
# For flow cytometric analysis, cells with sub-G0/G1 DNA content are stained with propidium iodide, and the methods are as described in section 2 of Example 8. […] Based on the results form LDH assay and apoptosis detection, Quercetin indeed has cytotoxicity and can further induce cell apoptosis.
# humans = conditions: 1000 mg/kg/day orally for several months; cited from earlier work
# normal rats = test: Colonic 5-HT content in normal rats; type: in vivo, rat; conditions: 10 mg/kg i.g., 14 days
# Protocol: as §1
# To identify whether the effects of Quercerin in PI-IBS rats are specific, pain threshold pressure, colonic EC cell number and 5-HT content are further evaluated in normal rats treated with Quercetin. […] After the final drug administration, pain threshold pressure, colonic EC cell density and 5-HT content are evaluated and the methods used here are as same as that shown in above experiments.
smiles,measurement,setting,value
"O=c1c(O)c(-c2ccc(O)c(O)c2)oc2cc(O)cc(O)c12 [Quercetin, 2-(3,4-dihydroxyphenyl)-3,5,7-trihydroxy-4H-chromen-4-one]",Protein level of cyclin B1,cyclin B1,significantly decrease
same,"5-HT content of tissue, +CRD",PI-IBS rats; 5 mg/kg i.g.,4.96 ± 0.91^ ng/mg
same,"5-HT content of tissue, -CRD",PI-IBS rats; 5 mg/kg i.g.,5.15 ± 0.58 ng/mg
same,"5-HT content of tissue, +CRD",PI-IBS rats; 10 mg/kg i.g.,4.29 ± 0.58^ ng/mg
same,"5-HT content of tissue, -CRD",PI-IBS rats; 10 mg/kg i.g.,4.63 ± 0.92 ng/mg
same,"5-HT content of tissue, +CRD",PI-IBS rats; 20 mg/kg i.g.,4.01 ± 1.14 ng/mg
same,"5-HT content of tissue, -CRD",PI-IBS rats; 20 mg/kg i.g.,5.50 ± 0.65^ ng/mg
same,Decrease of colon tissue 5-HT content after CRD application,PI-IBS rats; low dose,~3.67%
same,Decrease of colon tissue 5-HT content after CRD application,PI-IBS rats; median dose,~7.34%
same,Sub-G0/G1 fraction,QGP-1 cells,concentration-dependently increases
same,Toxicity on oral administration to humans,humans,no toxicity
same,5-HT content,normal rats,4.06 ± 0.48 ng/mg
